In patent publication US7144867B2, “Anticancer glycoside compounds” (priority 2004, dated 2006):

Columns and labels:
[1] = test system: DLD-1 (human colon adenocarcinoma); experiment: cells; conditions: for Percent Growth (Mean ± SEM, n = 2): 72-hour
Description: Test Substance and Concentration. Frondoside A (CBR-24) was dissolved in 100% DMSO and then diluted with sterile distilled water to obtain initial working solutions of 10000, 1000, 100, 10, and 1 μM in 40% DMSO. A 100-fold dilution was further made in culture media to generate final assay concentration of 100, 10, 1, 0.1 and 0.01 μM in 0.4% of DMSO.
Cell Line and Culture Media. The tumor cell line DLD-1 (human colon adenocarcinoma), obtained from American Type Culture Collection (ATCC CCL-221), was incubated in 95% air-5% CO2 gas mixture at 37° C. The culture medium used was RPMI 1640 with 10% fetal bovine serum, which was supplemented with 1% Antibiotic-Antimycotic.
Evaluation of anti-proliferation for test substances. Aliquots of 100 μl of cell suspension (about 2.5×10^3 cells/well) were placed in 96-well microtiter plates in an atmosphere of 5% CO2 at 37° C. […] Thus, the final concentration of DMSO was 0.4%. The Frondoside A was evaluated for possible inhibitory effects on cell proliferation at concentrations of 100, 10, 1, 0.1 and 0.01 μM. At the end of incubation, 20 μl of 90% alamarBlue reagent was added to each well for another 6 hour incubation before detection of cell viability by fluorescent intensity. Fluorescent intensity was measured using a Spectrafluor Plus plate reader with excitation at 530 nm and emission at 590 nm.
Determination of IC50, TGI and LC50. The measured results were calculated by the following formula: PG(%)=100%×(Mean Ftest−Mean Ftime0)/(Mean Fctrl−Mean Ftime0) If (Mean Ftest−Mean Ftime0)<0, then PG (%)=100%×(Mean Ftest−Mean Ftime0)/(Mean Ftime0−Mean Fblank) Where: • PG: percent growth • Mean Ftime0=The average of 2 measured fluorescent intensities of reduced alamarBlue at the time just before exposure of cells to the test substance. • Mean Ftest=The average of 2 measured fluorescent intensities of alamarBlue after 72-hour exposure of cells to the test substance. • Mean Fctrl=The average of 2 measured fluorescent intensities of alamarBlue after 72-hour incubation without the test substance. • Mean Fblank=The average of 2 measured fluorescent intensities of alamarBlue in medium without cells after 72-hour incubation.

caspase 9 = experiment: Western blotting, caspase 9 in AsPC-1 cells; type: cell-based, human; conditions: 4 μg/mL, time-dependent (FIG. 3)
Description: (§1) Western blotting. Cells were seeded into flasks and cultured to 50% to 60% confluence for 24 hours. Cells were then placed in serum-free medium with or without 4 μg/mL frondoside A for periods of 0, 24, 48 and 72 hours respectively. Proteins were extracted from attached and floating cells in lysis buffer containing 4% SDS. Protein concentrations were determined using the bicinchoninic acid assay with BSA as standard. Western blotting was carried out. In brief, equal amounts of protein in the cell lysates were separated on 15% SDS-PAGE and the proteins were transferred onto nitrocellulose membranes. After blocking non-specific sites with dried milk, membranes were incubated with the appropriate dilution of primary antibody. Membranes were then incubated with a horseradish peroxidase conjugated secondary antibody. Proteins were detected using an enhanced chemiluminescence detection system.

p21 = experiment: Western blotting, p21 in AsPC-1 cells; type: cell-based, human; conditions: 4 μg/mL, time-dependent (FIG. 5)
Description: as §1

Mcl-1 = experiment: Western blotting, Mcl-1 in AsPC-1 cells; type: cell-based, human; conditions: 4 μg/mL, time-dependent (FIG. 4)
Description: as §1

AsPC-1 cells = experiment: Morphological studies (apoptosis); type: cell-based, human; conditions: 4 μg/mL, within 24 hours
Description: Morphological studies. The photomicrographs of cell morphological changes were taken with a Kodak DC 120 digital zoom camera under an inverted microscope (400×) following treatment with or without 4 μg/mL frondoside A for different time periods from 24 to 72 hours.

cancer cells = experiment: Anti-cancer / apoptotic promoting activity, method not described; conditions: no test described for Frondoside B
caspase 3 = experiment: Western blotting, caspase 3 in AsPC-1 cells; type: cell-based, human; conditions: 4 μg/mL, time-dependent (FIG. 3)
Description: as §1

Q: Which results are given for `COC1C(O)C(CO)OC(OC2C(O)COC(OC3C(C)OC(OC4C(OC5CCC6(C)C7CCC89C(=O)OC(C)(CCCC(C)C)C8C(OC(C)=O)CC9(C)C7=CCC6C5(C)C)OCC(OS(=O)(=O)[O-])C4O)C(OC4OCC(O)C(O)C4O)C3O)C2O)C1O.[Na+]` [Frondoside A, 3-O-methyl-β-D-glucopyranosyl-(1→3)-β-D-xylopyranosyl-(1→4)-[β-D-xylopyranosyl-(1→2)]-β-D-quinovopyranosyl-(1→2)-4-O-sodium sulfate-β-D-xylopyranosyl-3-O-holost-7(8)-en-3β-ol-16β-O-acetate]?
A: growth inhibition of DLD-1 cells relative to the vehicle-treated control ([1]; 10 μM and 100 μM (≦50% of cell proliferation)): significant growth inhibition; Percent Growth (Mean ± SEM, n = 2) ([1]; DLD-1, 0.01 μM): 93 ± 5%; Percent Growth (Mean ± SEM, n = 2) ([1]; DLD-1, 0.1 μM): 84 ± 11%; Percent Growth (Mean ± SEM, n = 2) ([1]; DLD-1, 1 μM): 79 ± 5%; Percent Growth (Mean ± SEM, n = 2) ([1]; DLD-1, 10 μM): 12 ± 0%; Percent Growth (Mean ± SEM, n = 2) ([1]; DLD-1, 100 μM): −79 ± 5%; TGI (Total Growth Inhibition) ([1]; DLD-1, semi-quantitative, nonlinear regression): 12 µM; IC50 ([1]; read-out: IC50 (50% Inhibition Concentration), DLD-1, semi-quantitative, nonlinear regression): 3.6 µM; CC50 ([1]; read-out: LC50 (50% Lethal Concentration), DLD-1, semi-quantitative, nonlinear regression): 41 µM; activation of caspase 9 (caspase 9): reduction in the amounts of the respective procaspase forms; expression of P21 (p21): markedly increased; expression of Mcl-1 (Mcl-1): decreased expression; morphological changes (AsPC-1 cells): marked morphological changes characteristic of apoptosis; apoptotic promoting activity in cancer cells (cancer cells): apoptotic promoting activity; activation of caspase 3 (cleavage of procaspase 3) (caspase 3): cleaved into products of lower molecular weight
